The results in this text go back to ChEMBL document CHEMBL3046187, “Challenges in docking 2-hydroxy and 2,4-dihydroxychalcones into the binding site of ALR2” (Med Chem Res, 2013).

As usually defined, the IC50 is the concentration at which inhibition is half-maximal.

The target of test [1] is Aldo-keto reductase family 1 member B1 (Rattus norvegicus, UniProt P07943). Description: Inhibition of Rattus norvegicus (rat) lens aldose reductase.
Test [2] addresses Aldo-keto reductase family 1 member B1 (Homo sapiens, UniProt P15121). Briefly: Inhibition of Homo sapiens (human) aldose reductase.

Molecules are shown by their SMILES.

In turn, `O=C(/C=C/c1ccc(O)cc1)c1ccccc1O` returned an IC50 in test [1] of 4.25 µM. That is a single-digit micromolar value.

For `O=C(/C=C/c1ccccc1O)c1ccc(O)cc1O`, inhibition in test [1] was half-maximal at 0.38 µM (IC50).

On to `COc1ccc(/C=C/C(=O)c2ccc(O)cc2O)cc1`, for which, in test [1], it took 0.93 µM to reach half-maximal inhibition (IC50).

In test [1], `O=C(/C=C/c1ccc(Br)cc1)c1ccc(O)cc1O` came in with an IC50 of 1.12 µM.

`O=C(/C=C/c1ccc(O)cc1)c1cc(Cl)ccc1O`: in test [1], the IC50 was determined as 1.01 µM.

The molecule `O=C(/C=C/c1ccccc1)c1cc(Cl)ccc1O` came in with an IC50 in test [1] of 11.5 µM.

`COc1ccc(/C=C/C(=O)c2cc(Cl)ccc2O)cc1` came in with an IC50 in test [1] of 14.8 µM.

In test [1], `Cc1ccc(/C=C/C(=O)c2ccc(O)cc2O)cc1` showed a half-maximal inhibitory concentration (IC50) of 0.81 µM.

For the molecule `O=C(/C=C/c1cc(O)ccc1O)c1ccc(O)cc1O`, the midpoint of inhibition in test [1], the IC50, lay at 0.58 µM.

Regarding `O=C(/C=C/c1ccc(Cl)cc1)c1cc(Cl)ccc1O`, the IC50 in test [1] turned out to be 13.7 µM.

In turn, `CN(C)c1ccc(/C=C/C(=O)c2ccc(O)cc2O)cc1` yielded an IC50 in test [1] of 1.15 µM.

The molecule `O=C(/C=C/c1ccc(Cl)c(Cl)c1)c1ccc(O)cc1O` registered an IC50 in test [1] of 1.21 µM.

In the case of `COc1ccc(/C=C/C(=O)c2ccc(O)cc2O)cc1F`, the IC50 in test [1] was 0.91 µM.

In turn, `Cc1ccc(/C=C/C(=O)c2ccc(O)cc2O)c(C)c1` came in with an IC50 in test [1] of 0.4 µM. This IC50 lies about 2.3-fold lower than the previous one.

For `O=C(/C=C/c1ccc(O)c(O)c1O)c1ccc(O)cc1O`, the IC50 in test [1] stood at 0.75 µM.

`O=C(/C=C/c1ccccc1O)c1cc(Cl)ccc1O` came in with an IC50 in test [1] of 1.25 µM.

In test [1], `O=C(/C=C/c1cccc(O)c1)c1cc(Cl)ccc1O` registered an IC50 of 10.5 µM.

For `Cc1cccc(/C=C/C(=O)c2cc(Cl)ccc2O)c1`, in test [1], the IC50 was 10.2 µM. This IC50 and that of the molecule before are within 1.5-fold of each other.

For the molecule `Cc1ccc(/C=C/C(=O)c2cc(Cl)ccc2O)cc1`, in test [1], the IC50 is 9.8 µM.

For the molecule `Cc1ccc(/C=C/C(=O)c2cc(Cl)ccc2O)c(C)c1`, the IC50 in test [1] was 7.8 µM.

In test [1], `O=C(/C=C/c1ccc(O)cc1O)c1cc(Cl)ccc1O` returned an IC50 of 0.85 µM.

With `COc1ccc(/C=C/C(=O)c2cc(Cl)ccc2O)cc1F`, the IC50 in test [1] is 10.9 µM. Compared with the last molecule, the IC50 is about 13-fold higher.

In turn, `COc1ccc(/C=C/C(=O)c2cc(Cl)ccc2O)cc1OC` displayed an IC50 in test [1] of 11.8 µM.

On to `O=C(/C=C/c1ccc(O)c(O)c1)c1cc(Cl)ccc1O`, for which 0.55 µM corresponded to half-maximal inhibition in test [1] (IC50). Compared with the last molecule, the IC50 is about 21-fold lower.

The molecule `COc1ccc(/C=C/C(=O)c2cc(Cl)ccc2O)c(OC)c1OC` came in with an IC50 in test [1] of 8.2 µM.

As for `O=C(/C=C/c1ccc(O)c(O)c1O)c1cc(Cl)ccc1O`, the IC50 in test [1] was 2.23 µM.

`O=C(/C=C/c1ccc(O)cc1)c1cc(O)ccc1O`: the IC50 in test [1] came to 5.39 µM.

On to `COc1ccc(O)c(C(=O)/C=C/c2ccc(O)cc2)c1`, for which it took 3.18 µM to reach half-maximal inhibition in test [1] (IC50).

On to `COc1cccc(O)c1C(=O)/C=C/c1ccc(O)cc1`, for which the IC50 in test [1] was found to be 3.27 µM. This IC50 and that of the molecule before are within 1.5-fold of each other.

With `Cc1ccc(O)c(C(=O)/C=C/c2ccc(O)cc2)c1`, in test [1], it took 4.38 µM to reach half-maximal inhibition (IC50).

As to `O=C(/C=C/c1ccc(O)cc1)c1cc(Br)ccc1O`, the IC50 in test [1] came out at 2.15 µM.

On to `O=C(/C=C/c1ccc([N+](=O)[O-])cc1)c1ccc(O)cc1O`, for which the concentration for half-maximal inhibition (IC50) in test [1] is 3.21 µM.

The molecule `COc1ccc(C(=O)/C=C/c2ccc(O)cc2)c(O)c1` gave an IC50 in test [1] of 5.24 µM.

`O=C(/C=C/c1ccc(O)cc1O)c1ccc(O)cc1O`: the IC50 in test [1] is 0.16 µM.

`COc1ccc(/C=C/C(=O)c2ccc(O)cc2O)cc1OC` returned an IC50 in test [1] of 1.05 µM. This IC50 is about 6.6-fold higher than that of the molecule before.

`O=C(/C=C/c1ccccc1)c1ccc(O)cc1O` [2',4'-DIHYDROXYCHALCONE] yielded an IC50 in test [1] of 1.01 µM.

In turn, `O=C(/C=C/c1ccc(O)c(O)c1)c1ccc(O)cc1O` [BUTEIN] had a concentration for half-maximal inhibition (IC50) in test [1] of 0.45 µM.

Consider `O=C(/C=C/c1ccc(O)cc1)c1ccc(O)cc1O` [ISOLIQUIRITIGENIN], for which the IC50 in test [1] amounted to 0.4 µM.

`CC1=C(CC(=O)O)c2cc(F)ccc2/C1=C\c1ccc([S+](C)[O-])cc1` (stereo not given) [SULINDAC] gave an IC50 in test [2] of 0.374 µM.

In test [2], `Cc1ccc(C(=O)c2ccc(CC(=O)O)n2C)cc1` [TOLMETIN] registered an IC50 of 2.39 µM.
